≈ marks a conversion by molar mass, not a printed value.
Assays:
[1] = dissolution (liberation) of terfenadine from capsules, FIG. 4; type: physicochemical; details: after 120 minutes; dose 60 mg
Procedure: Another active principle, terfenadine, was formulated with Gelucire® 44/14. The mixture was cast into a capsule in a manner that was similar to that of Example 1 above which used piroxicam.
The dose was 60 mg, for a total of 680 mg of formulation.
The graph of FIG. 4 was therefore obtained, illustrating the liberation L (%) of the active principle as a function of time t in minutes, in which: • the curve C1 (invention) corresponds to a mixture of terfenadine/Gelucire® 44/14/PEG 6000, in which the ratio by weight of Gelucire® 44/14/PEG 6000 is 65/35: • the curve C2 (invention) corresponds to a mixture of terfenadine/Gelucire® 44/14/PEG 6000, in which the ratio by weight of Gelucire® 44/14/PEG 6000 is 60/40; • the curve C3 (control 1) corresponds to a mixture of terfenadine/PEG 6000; • the curve C4 (control 2) corresponds to terfenadine alone.

[2] = water at 25° C.; cited from earlier work

liberation L of terfenadine [1]: below 10%
SMILES: CC(C)(C)c1ccc(C(O)CCCN2CCC(C(O)(c3ccccc3)c3ccccc3)CC2)cc1 (centres unmarked) [terfenadine]
solubility in water [2]: 250 µg/mL (≈ 530 µM)
